Source: publication PMC9358002, “Synthesis and Discovery of Ligustrazine–Heterocycle Derivatives as Antitumor Agents” (Frontiers in Chemistry, 2022)
Read-outs that look alike come from different tables or passages of the source.

Tests used:
Format in all cases: cell-based
[1] = test system: human breast cancer MCF-7; assay: MTT antiproliferative assay, MCF-7; settings: 0–50 μM, read-out: Antiproliferative activity IC50 ± SEM, MCF-7
Description: (§1) The in vitro antiproliferative activity of 33 TMPH compounds was evaluated by MTT assay ([Medica et al., 2022]). Five types of TNBC-related cell lines (human breast cancer MCF-7 and MDA-MB-231, mouse breast cancer 4T1, mouse fibroblast L929, and human umbilical vein endothelial HUVEC cell lines) were used. The cell lines were obtained from the Shanghai Institute of Biochemistry and Cell Biology of the Chinese Academy of Sciences (Shanghai, China). The cell lines were cultured in DMEM supplemented with 1% penicillin–streptomycin solution (100×) and 10% FBS at 37°C under a humid atmosphere containing 5% CO2. After cell passage, cryopreservation, and resuscitation, the growth-inhibitory effects against the five cell lines were determined by MTT assay. The 33 TMPH compounds and the reference control drug cisplatin were dissolved in 0.1% DMSO solution. The cell lines were maintained in 96-well plates and subjected to each test compound (0–50 μM) at 37°C for 48 h. After treatment with 1 mg/ml MTT solution for 4 h, the formazan crystals were dissolved in each well. A microplate reader (Varioskan Flash 3001, Thermo Scientific) was used to determine the cell viability at 490 nm, and each experiment was repeated four times. The collected data were expressed as the mean ± SEM. The inhibitory concentration of the 34 compounds at 50% (IC50) was calculated via concentration–inhibition relationship regression by SPSS software.

[2] = test system: human breast cancer MDA-MB-231; assay: MTT antiproliferative assay, MDA-MB-231; settings: for IC50: MTT, 48 h, 0–50 μM, read-out: Antiproliferative activity IC50 ± SEM, MDA-MB-231; for SI, selectivity index: SI = IC50 (L929)/IC50 (MDA-MB-231)
Description: as §1

mouse breast cancer 4T1 = assay: MTT antiproliferative assay, 4T1; settings: 48 h, 0–50 μM, read-out: Antiproliferative activity IC50 ± SEM, 4T1
Description: as §1

mouse fibroblast L929 = assay: MTT antiproliferative assay, L929; settings: 0–50 μM, read-out: Antiproliferative activity IC50 ± SEM, L929
Description: as §1

[3] = test system: human umbilical vein endothelial HUVEC; assay: MTT antiproliferative assay, HUVEC; settings: 48 h, 0–50 μM, read-out: Antiproliferative activity IC50 ± SEM, HUVEC
Description: as §1

[4] = test system: MCF-7, MDA-MB-231, 4T1, L929 and HUVEC cell lines; assay: MTT antiproliferative assay, statements over all five tested cell lines; settings: range over all five tested cell lines, read-out: IC50 values ranging over the tested cell lines
Description: as §1

IC50 ([1]; Homo sapiens, MCF7, 48 h) [µM] | IC50 ([2]; Homo sapiens, MDA-MB-231) [µM] | IC50 (mouse breast cancer 4T1; Mus musculus) [µM] | SMILES | SI, selectivity index [2] | IC50 (mouse fibroblast L929; Mus musculus, L929, 48 h) [µM] | IC50 ([3]; Homo sapiens, HUVEC) [µM] | IC50 [4] [µM] | IC50 ([1]; 48 h) [µM] | IC50 [2] [µM] | IC50 (mouse breast cancer 4T1) [µM] | IC50 (mouse fibroblast L929; 48 h) [µM] | IC50 [3] [µM]
8.72 ± 0.49 | 5.76 ± 0.13 | > 20 | Cc1nc(C)c(C(=O)NCCCCCCCCCCNC(=O)c2cnc3ccccc3c2)nc1C [10–5] | 0.90 | 5.18 ± 0.27 | > 20 | – | – | – | – | – | –
6.49 ± 0.36 | 7.76 ± 0.14 | 12 ± 0.54 | Cc1nc(C)c(C(=O)NCCCCCCCCCCNC(=O)c2ccc3ncccc3c2)nc1C [10–6] | 1.15 | 8.91 ± 0.12 | 10.2 ± 0.86 | 1.61 to 19.5 | – | – | – | – | –
3.37 ± 0.19 | 6.01 ± 0.11 | 3.12 ± 0.14 | Cc1nc(C)c(C(=O)NCCCCCCCCCCNC(=O)c2ccc3cc[nH]c3c2)nc1C [10–9] | 1.23 | 7.37 ± 0.57 | 9.63 ± 0.53 | 1.61 to 19.5 | – | – | – | – | –
2.93 ± 0.05 | 2.83 ± 0.09 | > 20 | Cc1nc(C)c(C(=O)NCCCCCCCCCCNC(=O)C=Cc2ccc(Cl)cc2)nc1C [10–10] | 3.58 | 10.1 ± 0.52 | 11.2 ± 0.38 | – | – | – | – | – | –
3.23 ± 0.03 | 12.9 ± 1.41 | > 20 | COc1ccc(C=CC(=O)NCCCCCCCCCCNC(=O)c2nc(C)c(C)nc2C)cc1OC [10–11] | >1.55 | > 20 | > 20 | – | – | – | – | – | –
2.86 ± 0.08 | 3.41 ± 0.12 | > 20 | COc1cc(C=CC(=O)NCCCCCCCCCCNC(=O)c2nc(C)c(C)nc2C)cc(OC)c1OC [10–12] | >5.87 | > 20 | > 20 | – | – | – | – | – | –
3.09 ± 0.13 | 4.6 ± 0.29 | 9.88 ± 0.22 | Cc1nc(C)c(C(=O)NCCCCCCCCCCNC(=O)c2ccc3ccccc3c2)nc1C [10–13] | 2.75 | 12.64 ± 0.12 | 10.5 ± 1.24 | 1.61 to 19.5 | – | – | – | – | –
1.95 ± 0.06 | 2.78 ± 0.37 | 2.66 ± 0.05 | Cc1nc(C)c(C(=O)NCCCCCCCCCCCCNC(=O)C=Cc2ccccc2)nc1C [12–1] | 1.71 | 4.75 ± 0.26 | 13.2 ± 1.12 | 1.61 to 19.5 | – | – | – | – | –
2.71 ± 0.07 | 3.38 ± 0.12 | 3.97 ± 0.01 | Cc1nc(C)c(C(=O)NCCCCCCCCCCCCNC(=O)c2cc3ccccc3o2)nc1C [12–2] | 1.12 | 3.78 ± 0.14 | 11 ± 0.68 | 1.61 to 19.5 | – | – | – | – | –
3.26 ± 0.16 | 2.12 ± 0.06 | 5.13 ± 0.28 | Cc1nc(C)c(C(=O)NCCCCCCCCCCCCNC(=O)c2cc3ccccc3s2)nc1C [12–3] | 3.61 | 7.65 ± 0.06 | 7.86 ± 0.01 | 1.61 to 19.5 | – | – | – | – | –
3.23 ± 0.18 | 3.52 ± 0.12 | 6.62 ± 0.14 | Cc1nc(C)c(C(=O)NCCCCCCCCCCCCNC(=O)c2cc3ccccc3[nH]2)nc1C [12–4] | >5.68 | > 20 | > 20 | – | – | – | – | – | –
1.76 ± 0.02 | 2.42 ± 0.18 | 2.32 ± 0.14 | COc1ccc(C=CC(=O)NCCCCCCCCCCCCNC(=O)c2nc(C)c(C)nc2C)cc1OC [12–11] | >8.26 | > 20 | > 20 | – | – | – | – | – | –
> 20 | > 20 | > 20 | Cc1nc(C)c(C)nc1C [TMP, Ligustrazine] | – | > 20 | > 20 | – | – | – | – | – | –

Continued, molecule first:

SMILES | IC50 ([1]; Homo sapiens, MCF7, 48 h) [µM] | IC50 ([2]; Homo sapiens, MDA-MB-231) [µM] | IC50 (mouse breast cancer 4T1; Mus musculus) [µM] | SI, selectivity index [2] | IC50 (mouse fibroblast L929; Mus musculus, L929, 48 h) [µM] | IC50 ([3]; Homo sapiens, HUVEC) [µM] | IC50 [4] [µM] | IC50 ([1]; 48 h) [µM] | IC50 [2] [µM] | IC50 (mouse breast cancer 4T1) [µM] | IC50 (mouse fibroblast L929; 48 h) [µM] | IC50 [3] [µM]
Cc1nc(C)c(C(=O)NCCCCCCCCNC(=O)C=Cc2ccccc2)nc1C [8–1] | 10.99 ± 0.06 | 2.52 ± 0.08 | > 20 | 6.58 | 16.58 ± 0.12 | > 20 | – | – | – | – | – | –
Cc1nc(C)c(C(=O)NCCCCCCCCNC(=O)c2cc3ccccc3o2)nc1C [8–2] | 6.62 ± 0.15 | 6.1 ± 0.16 | 19.86 ± 0.16 | >3.28 | > 20 | 4.27 ± 0.07 | – | – | – | – | – | –
Cc1nc(C)c(C(=O)NCCCCCCCCNC(=O)c2cc3ccccc3s2)nc1C [8–3] | 4.15 ± 0.02 | 3.39 ± 0.12 | 19.5 ± 0.45 | 1.22 | 4.12 ± 0.32 | 9.78 ± 0.05 | 1.61 to 19.5 | – | – | – | – | –
Cc1nc(C)c(C(=O)NCCCCCCCCNC(=O)c2cc3ccccc3[nH]2)nc1C [8–4] | 6.21 ± 0.14 | 5.77 ± 0.09 | > 20 | 1.85 | 10.7 ± 0.43 | > 20 | – | – | – | – | – | –
Cc1nc(C)c(C(=O)NCCCCCCCCNC(=O)c2cnc3ccccc3c2)nc1C [8–5] | 4.96 ± 0.25 | 3.44 ± 0.16 | 2.07 ± 0.04 | 1.01 | 3.49 ± 0.28 | > 20 | – | – | – | – | – | –
Cc1nc(C)c(C(=O)NCCCCCCCCNC(=O)c2ccc3ncccc3c2)nc1C [8–6] | > 20 | 1.02 ± 0.15 | 1.94 ± 0.03 | >19.61 | > 20 | > 20 | – | – | – | – | – | –
Cc1nc(C)c(C(=O)NCCCCCCCCNC(=O)c2ccc3cc[nH]c3c2)nc1C [8–9] | > 20 | 8.45 ± 0.14 | 3.74 ± 0.19 | >2.37 | > 20 | > 20 | – | – | – | – | – | –
Cc1nc(C)c(C(=O)NCCCCCCCCNC(=O)C=Cc2ccc(Cl)cc2)nc1C [8–10] | 2.84 ± 0.21 | 6.67 ± 0.16 | 2.48 ± 0.24 | 0.82 | 5.48 ± 0.06 | 4.54 ± 0.01 | 1.61 to 19.5 | – | – | – | – | –
COc1ccc(C=CC(=O)NCCCCCCCCNC(=O)c2nc(C)c(C)nc2C)cc1OC [8–11] | > 20 | 5.05 ± 0.02 | 12 ± 0.46 | >3.96 | > 20 | 10.35 ± 0.03 | – | – | – | – | – | –
COc1cc(C=CC(=O)NCCCCCCCCNC(=O)c2nc(C)c(C)nc2C)cc(OC)c1OC [8–12] | 5.38 ± 0.13 | 11.2 ± 0.12 | 10.2 ± 0.32 | >1.78 | > 20 | > 20 | – | – | – | – | – | –
Cc1nc(C)c(C(=O)NCCCCCCCCNC(=O)c2ccc3ccccc3c2)nc1C [8–13] | > 20 | 2.44 ± 0.09 | 13.7 ± 0.24 | 6.42 | 15.7 ± 0.36 | 14.4 ± 0.03 | – | – | – | – | – | –
Cc1nc(C)c(C(=O)NCCCCCCCCCCNC(=O)C=Cc2ccccc2)nc1C [10–1] | 2.61 ± 0.19 | 1.14 ± 0.08 | 2.86 ± 0.18 | 3.82 | 4.36 ± 0.37 | > 20 | – | – | – | – | – | –
Cc1nc(C)c(C(=O)NCCCCCCCCCCNC(=O)c2cc3ccccc3o2)nc1C [10–2] | 4.19 ± 0.15 | 8.41 ± 0.18 | > 20 | 1.39 | 11.7 ± 0.81 | 16.6 ± 0.68 | – | – | – | – | – | –
Cc1nc(C)c(C(=O)NCCCCCCCCCCNC(=O)c2cc3ccccc3s2)nc1C [10–3] | 18.5 ± 1.34 | 4.16 ± 0.25 | 17.6 ± 1.16 | 1.75 | 7.26 ± 0.16 | > 20 | – | – | – | – | – | –
Cc1nc(C)c(C(=O)NCCCCCCCCCCNC(=O)c2cc3ccccc3[nH]2)nc1C [10–4] | > 20 | 13 ± 0.27 | > 20 | >1.54 | > 20 | > 20 | – | – | – | – | – | –
N.N.[Cl][Pt][Cl] [DDP, cisplatin, reference compound] | – | – | – | 2.64 | – | – | – | 6.25 ± 0.34 | 3.18 ± 0.06 | 5.71 ± 0.16 | 8.38 ± 0.23 | 7.46 ± 0.45
